Laboratory results as given in patent publication US20160046618A1, “Cyclopropyl Fused Thiazin-2-Amine Compounds as Beta-Secretase Inhibitors and Methods of Use” (AMGEN INC., priority 2014, published 2016).

Columns and labels:
[1] = molecular target: Recombinant Cat D (Homo sapiens (Human), UniProt P07339); assay: In vitro enzymatic Cathepsin D (Cat D) FRET assay; assay type: biochemical; details: read-out: IC50 IP (μM) CatD
How it was run: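 Cleavage of a 20 nM FRET peptide by CHO-derived Cat D over 1 h at pH 3.5 (citrate buffer with CHAPS, 10% DMSO final). Endpoint fluorescence is read after Tris quench.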

[2] = molecular target: human recombinant BACE1 (Homo sapiens (Human), UniProt P56817); assay: In vitro enzymatic BACE1 FRET assay; assay type: biochemical; details: read-out: IC50 IP (μM) BACE1 enzyme
Sequence of human recombinant BACE1 (P56817 46-501): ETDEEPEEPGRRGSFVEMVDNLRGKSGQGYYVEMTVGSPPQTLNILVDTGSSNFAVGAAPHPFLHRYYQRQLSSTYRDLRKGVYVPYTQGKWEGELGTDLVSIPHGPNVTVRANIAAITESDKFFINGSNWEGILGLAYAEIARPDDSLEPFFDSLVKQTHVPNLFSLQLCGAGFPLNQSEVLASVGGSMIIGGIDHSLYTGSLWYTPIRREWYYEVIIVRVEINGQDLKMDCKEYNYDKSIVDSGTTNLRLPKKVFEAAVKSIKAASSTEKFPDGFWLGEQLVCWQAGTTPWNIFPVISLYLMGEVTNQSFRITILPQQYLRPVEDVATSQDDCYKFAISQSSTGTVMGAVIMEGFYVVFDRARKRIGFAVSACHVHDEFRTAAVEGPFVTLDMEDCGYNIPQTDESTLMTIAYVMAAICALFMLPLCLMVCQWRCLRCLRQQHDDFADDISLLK
How it was run: (§1)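 Ni-NTA-purified recombinant protease incubated with compound; reaction started with 50 nM FRET peptide substrate (fluorophore/quencher flanking the BACE cleavage site) and run 1 h. Stopped with Tris buffer raising pH to neutral; fluorescence read at ex 488/em 590 nm.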

[3] = tested on: Aβ40 in conditioned medium of cells stably expressing Amyloid Precursor Protein (APP); assay: In vitro BACE-1 cell-based assay (Aβ40 sandwich ELISA); details: read-out: IC50 IP (μM) BACE1 cell
How it was run: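 APP-expressing cells treated 24 h at 37 °C with compound in 10-point dose response (top 100 μM or 10 μM, 0.1% DMSO final). Secreted Aβ40 in conditioned medium quantified by sandwich ELISA (pAb40 capture, biotinylated 6E10 detection, time-resolved europium fluorescence); IC50 from percent inhibition versus concentration.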

[4] = molecular target: human recombinant BACE2 (Homo sapiens (Human), UniProt Q9Y5Z0); assay: In vitro enzymatic BACE2 FRET assay; assay type: biochemical; details: read-out: IC50 IP (μM) BACE2 enzyme
Sequence of human recombinant BACE2 (Q9Y5Z0 63-518): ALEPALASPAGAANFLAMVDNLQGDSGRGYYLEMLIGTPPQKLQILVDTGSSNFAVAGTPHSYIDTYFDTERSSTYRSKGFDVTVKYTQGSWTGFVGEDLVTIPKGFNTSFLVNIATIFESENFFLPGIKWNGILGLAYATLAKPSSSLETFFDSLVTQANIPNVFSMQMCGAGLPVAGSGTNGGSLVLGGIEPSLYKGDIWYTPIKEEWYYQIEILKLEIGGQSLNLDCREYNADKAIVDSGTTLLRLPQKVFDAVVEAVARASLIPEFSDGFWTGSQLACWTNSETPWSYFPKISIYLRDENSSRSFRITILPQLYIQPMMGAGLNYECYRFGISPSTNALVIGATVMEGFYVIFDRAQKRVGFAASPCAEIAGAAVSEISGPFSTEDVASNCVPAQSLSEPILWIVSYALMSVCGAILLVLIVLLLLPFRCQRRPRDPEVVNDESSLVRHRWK
How it was run: as §1

Sequence of Recombinant Cat D (P07339 65-412): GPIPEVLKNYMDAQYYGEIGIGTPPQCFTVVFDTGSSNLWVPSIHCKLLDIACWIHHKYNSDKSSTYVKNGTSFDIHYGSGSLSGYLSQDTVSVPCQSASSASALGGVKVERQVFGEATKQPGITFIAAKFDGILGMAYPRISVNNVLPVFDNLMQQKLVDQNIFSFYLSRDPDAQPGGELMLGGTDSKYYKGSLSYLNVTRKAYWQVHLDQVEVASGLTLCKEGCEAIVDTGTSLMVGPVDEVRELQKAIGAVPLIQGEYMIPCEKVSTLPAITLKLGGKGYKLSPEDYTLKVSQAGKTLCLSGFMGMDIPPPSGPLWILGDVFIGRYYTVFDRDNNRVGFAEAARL

| Structure (SMILES) | IC50 [1] [µM] | IC50 [2] [µM] | IC50 [3] [µM] | IC50 [4] [µM] |
| --- | --- | --- | --- | --- |
| Cc1noc(COc2cnc3c(Nc4ccc(F)c([C@@]5(CF)N=C(N)S[C@@]6(CF)C[C@H]65)c4)nccc3n2)n1 [Example 880, N-(3-((1S,5S,6S)-3-amino-1,5-bis(fluoromethyl)-2-thia-4-azabicyclo[4.1.0]hept-3-en-5-yl)-4-fluorophenyl)-2-((3-methyl-1,2,4-oxadiazol-5-yl)methoxy)pyrido[3,4-b]pyrazin-5-amine] | 1110 | 0.00452 | 0.0193 | 0.27 |
| COC[C@]12C[C@H]1[C@@](C)(c1cc(Nc3nccc4nc(OCc5ncccn5)cnc34)cc(F)c1F)N=C(N)S2 [Example 881, N-(3-((1S,5S,6S)-3-amino-1-(methoxymethyl)-5-methyl-2-thia-4-azabicyclo[4.1.0]hept-3-en-5-yl)-4,5-difluorophenyl)-2-(2-pyrimidinylmethoxy)pyrido[3,4-b]pyrazin-5-amine] | 349 | 0.00936 | 0.00819 | 0.14 |
| COC[C@]12C[C@H]1[C@@](C)(c1cc(Nc3nccc4nc(OCc5nc(C)no5)cnc34)cc(F)c1F)N=C(N)S2 [Example 882, N-(3-((1S,5S,6S)-3-amino-1-(methoxymethyl)-5-methyl-2-thia-4-azabicyclo[4.1.0]hept-3-en-5-yl)-4,5-difluorophenyl)-2-((3-methyl-1,2,4-oxadiazol-5-yl)methoxy)pyrido[3,4-b]pyrazin-5-amine] | 911 | 0.00778 | 0.0204 | 0.381 |
| Cc1nc(COc2cnc3c(Nc4cc(F)c(F)c([C@@]5(C)N=C(N)S[C@@]6(C(F)F)C[C@@H]56)c4)nccc3n2)no1 [Example 883, N-(3-((1S,5S,6S)-3-amino-1-(difluoromethyl)-5-methyl-2-thia-4-azabicyclo[4.1.0]hept-3-en-5-yl)-4,5-difluorophenyl)-2-((5-methyl-1,2,4-oxadiazol-3-yl)methoxy)pyrido[3,4-b]pyrazin-5-amine] | 363 | 0.000316 | 0.0133 | 0.091 |
| C[C@]1(c2cc(Nc3nccc4nc(OCc5ncccn5)cnc34)cc(F)c2F)N=C(N)S[C@@]2(C(F)F)C[C@@H]12 [Example 884, N-(3-((1S,5S,6S)-3-amino-1-(difluoromethyl)-5-methyl-2-thia-4-azabicyclo[4.1.0]hept-3-en-5-yl)-4,5-difluorophenyl)-2-(2-pyrimidinylmethoxy)pyrido[3,4-b]pyrazin-5-amine] | > 400 | 0.00427 | 0.0119 | 0.13 |
| COC[C@]12C[C@H]1[C@@](C)(c1cc(Nc3nccc4nc(OCc5noc(C)n5)cnc34)cc(F)c1F)N=C(N)S2 [Example 885, N-(3-((1S,5S,6S)-3-amino-1-(methoxymethyl)-5-methyl-2-thia-4-azabicyclo[4.1.0]hept-3-en-5-yl)-4,5-difluorophenyl)-2-((5-methyl-1,2,4-oxadiazol-3-yl)methoxy)pyrido[3,4-b]pyrazin-5-amine] | 592 | 0.00223 | 0.00823 | 0.143 |
| Cc1nc(COc2cnc3c(Nc4cc(F)c(F)c([C@@]5(C)N=C(N)S[C@@]6(C(F)F)C[C@@H]56)c4)nccc3n2)c(C)o1 [Example 886, N-(3-((1S,5S,6S)-3-amino-1-(difluoromethyl)-5-methyl-2-thia-4-azabicyclo[4.1.0]hept-3-en-5-yl)-4,5-difluorophenyl)-2-((2,5-dimethyl-1,3-oxazol-4-yl)methoxy)pyrido[3,4-b]pyrazin-5-amine] | 136 | 0.0011 | 0.0411 | 0.0278 |
| Cc1noc(COc2cnc3c(Nc4cc(F)c(F)c([C@@]5(C)N=C(N)S[C@@]6(C(F)F)C[C@@H]56)c4)nccc3n2)n1 [Example 887, N-(3-((1S,5S,6S)-3-amino-1-(difluoromethyl)-5-methyl-2-thia-4-azabicyclo[4.1.0]hept-3-en-5-yl)-4,5-difluorophenyl)-2-((3-methyl-1,2,4-oxadiazol-5-yl)methoxy)pyrido[3,4-b]pyrazin-5-amine] | > 400 | 0.00295 | 0.0442 | 0.317 |
| Cc1cnc(COc2cnc3c(Nc4cc(F)c(F)c([C@@]5(C)N=C(N)S[C@@]6(C(F)F)C[C@@H]56)c4)nccc3n2)o1 [Example 888, N-(3-((1S,5S,6S)-3-amino-1-(difluoromethyl)-5-methyl-2-thia-4-azabicyclo[4.1.0]hept-3-en-5-yl)-4,5-difluorophenyl)-2-((5-methyl-1,3-oxazol-2-yl)methoxy)pyrido[3,4-b]pyrazin-5-amine] | 71.9 | 0.00209 | 0.0218 | 0.0581 |
| Cc1nnc(COc2cnc3c(Nc4cc(F)c(F)c([C@@]5(C)N=C(N)S[C@@]6(C(F)F)C[C@@H]56)c4)nccc3n2)s1 [Example 889, N-(3-((1S,5S,6S)-3-amino-1-(difluoromethyl)-5-methyl-2-thia-4-azabicyclo[4.1.0]hept-3-en-5-yl)-4,5-difluorophenyl)-2-((5-methyl-1,3,4-thiadiazol-2-yl)methoxy)pyrido[3,4-b]pyrazin-5-amine] | 306 | 0.0418 | 0.252 | 1.41 |
| C[C@@H](Oc1cnc2c(Nc3cc(F)c(F)c([C@@]4(C)N=C(N)S[C@@]5(C(F)F)C[C@@H]45)c3)nccc2n1)c1ncco1 [Example 891, N-(3-((1S,5S,6S)-3-amino-1-(difluoromethyl)-5-methyl-2-thia-4-azabicyclo[4.1.0]hept-3-en-5-yl)-4,5-difluorophenyl)-2-((1 R)-1-(1,3-oxazol-2-yl)ethoxy)pyrido[3,4-b]pyrazin-5-amine] | 984 | 0.177 | 2.88 | 1.09 |
| C[C@H](Oc1cnc2c(Nc3cc(F)c(F)c([C@@]4(C)N=C(N)S[C@@]5(C(F)F)C[C@@H]45)c3)nccc2n1)c1ncco1 [Example 892, N-(3-((1S,5S,6S)-3-amino-1-(difluoromethyl)-5-methyl-2-thia-4-azabicyclo[4.1.0]hept-3-en-5-yl)-4,5-difluorophenyl)-2-((1 S)-1-(1,3-oxazol-2-yl)ethoxy)pyrido[3,4-b]pyrazin-5-amine] | 873 | 0.00278 | 0.056 | 0.848 |
| C[C@]1(c2cc(Nc3nccc4nc(OCCN5CCCC5=O)cnc34)cc(F)c2F)N=C(N)S[C@@]2(C(F)F)C[C@@H]12 [Example 893, 1-(2-((5-((3-((1S,5S,6S)-3-amino-1-(difluoromethyl)-5-methyl-2-thia-4-azabicyclo[4.1.0]hept-3-en-5-yl)-4,5-difluorophenyl)amino)pyrido[3,4-b]pyrazin-2-yl)oxy)ethyl)-2-pyrrolidinone] | 518 | 0.149 | 1.66 | 3.86 |
| COC[C@H](C)Oc1cnc2c(Nc3cc(F)c(F)c([C@@]4(C)N=C(N)S[C@@]5(C(F)F)C[C@@H]45)c3)nccc2n1 [Example 894, N-(3-((1S,5S,6S)-3-amino-1-(difluoromethyl)-5-methyl-2-thia-4-azabicyclo[4.1.0]hept-3-en-5-yl)-4,5-difluorophenyl)-2-((1S)-2-methoxy-1-methylethoxy)pyrido[3,4-b]pyrazin-5-amine] | > 133 | 0.00372 | 0.05 | 0.464 |
| COc1cnc2c(Nc3cc(F)c(F)c([C@@]4(C)N=C(N)S[C@@]5(C(F)F)C[C@@H]45)c3)nccc2n1 [Example 895, N-(3-((1S,5S,6S)-3-amino-1-(difluoromethyl)-5-methyl-2-thia-4-azabicyclo[4.1.0]hept-3-en-5-yl)-4,5-difluorophenyl)-2-methoxypyrido[3,4-b]pyrazin-5-amine] | 167 | 0.0053 | 0.113 | 0.0254 |
| C[C@]1(c2cc(Nc3nccc4[nH]c(=O)cnc34)cc(F)c2F)N=C(N)S[C@@]2(C(F)F)C[C@@H]12 [Example 896, 5-((3-((1S,5S,6S)-3-amino-1-(difluoromethyl)-5-methyl-2-thia-4-azabicyclo[4.1.0]hept-3-en-5-yl)-4,5-difluorophenyl)amino)pyrido[3,4-b]pyrazin-2(1H)-one] | 128 | 0.018 | 0.135 | 0.0223 |
| COc1cnc2c(Nc3cc(F)c(F)c([C@@]4(C)N=C(N)S[C@H]5C[C@H]54)c3)ncnc2c1 [Example 897, N-(3-((1S,5S,6S)-3-amino-5-methyl-2-thia-4-azabicyclo[4.1.0]hept-3-en-5-yl)-4,5-difluorophenyl)-7-methoxypyrido[3,2-d]pyrimidin-4-amine] | 1440 | 0.035 | 0.038 | 0.184 |
| COC(=O)[C@]12C[C@H]1[C@@](C)(c1cc(NC(=O)c3ccc(Cl)cn3)cc(F)c1F)N=C(N)S2 [Example 898, (1S,5S,6S)-methyl 3-amino-5-(5-(5-chloropicolinamido)-2,3-difluorophenyl)-5-methyl-2-thia-4-azabicyclo[4.1.0]hept-3-ene-1-carboxylate] | 673 | 0.00454 | 0.111 | 0.00268 |
